Laboratory results: patent publication US20230372458A1, “ANTIVIRAL AGENT FOR COMBINED THERAPY OF COVID-19 (SARS-COV-2)” (priority 2020, published 2023)
Read-outs that look alike come from different tables or passages of the source.

System: COVID-19 (SARS-CoV-2)
Details: lung damage by computer tomography

NC(=O)c1nc(F)cnc1O [FPV, 6-fluoro-3-hydroxy-2-pyrazinecarboxamide]
CT on Day 14: Improvement, percent of patients: (72.7%)
CT on Day 14: No change, percent of patients: (9.1%)
CT on Day 14: Worsening, percent of patients: (18.2%)
CT on Day 14: Improvement, number of patients (count of patients): 8
CT on Day 14: No change, number of patients (count of patients): 1
CT on Day 14: Worsening, number of patients (count of patients): 2
CT on Day 14: Improvement, percent of patients (listed as FVP): 72.7%
CT on Day 14: No change, percent of patients (listed as FVP): 9.1%
CT on Day 14: Worsening, percent of patients (listed as FVP): 18.2%
